Measured values from patent US8975015B2, “Antimicrobial compounds” (priority 2009, dated 2015).
In brackets after ≈: the same amount, converted by molar mass.

Columns and labels:
Experiment in all cases: microbe, parasite or virus in culture
[1] = test system: Mycobacterium tuberculosis (replicating TB); assay type: cell-based
non-replicating TB = assay type: cell-based, Mycobacterium tuberculosis
[2] = test system: strains of TB that are resistant to Rifampin; assay type: cell-based; details: Mycobacterium tuberculosis
[3] = test system: strains of TB that are resistant to Isoniazid; assay type: cell-based; details: Mycobacterium tuberculosis
[4] = test system: strains of TB that are resistant to Kanamycin; assay type: cell-based; details: Mycobacterium tuberculosis

O=C1C=Cc2nocc2/C1=C1/Nc2ccccc2C1=O [Example P1, 4-(3-oxoindolin-2-ylidene)benzo[c]isoxazol-5(4H)-one]
MIC MABA [1]: 0.15 µg/mL (≈ 0.568 µM) | MIC LORA (non-replicating TB): 1.833 µg/mL (≈ 6.94 µM) | MIC [2]: 0.239 µg/mL (≈ 0.904 µM) | MIC [3]: 0.138 µg/mL (≈ 0.522 µM) | MIC [4]: 0.148 µg/mL (≈ 0.56 µM)
